# Assay results published in patent US9758494B2, “N-(oxazol-2-yl)-aryl-carboxylic acid amides and use thereof as herbicides” (BAYER CROPSCIENCE AG, priority 2012, dated 2017).
# Assays:
# Type in all cases: in vivo
# Oryza sativa (Rice) [1] = test: Pre-emergence, damage of crop plants
# From the text: (§1) Seeds of monocotyledonous and dicotyledonous weed plants and crop plants are laid out in wood-fiber pots in sandy loam and covered with soil. The compounds according to the invention, formulated in the form of wettable powders (WP) or as emulsion concentrates (EC), are then applied to the surface of the soil cover in the form of an aqueous suspension or emulsion at a water application rate equating to 600 to 800 l/ha, with addition of 0.2% wetting agent. After the treatment, the pots are placed in a greenhouse and kept under good growth conditions for the test plants. The damage to the test plants is assessed visually after a test period of 3 weeks by comparison with untreated controls (herbicidal activity in percent (%): 100% activity=the plants have died, 0% activity=like control plants). Here, for example, compounds No. 1-163, 1-171, 1-172, 1-283, 1-284, 1-294, 1-295, 1-334, 10-001 and 11-343, at an application rate of 320 g/ha, have an activity of at least 80% against Veronica persica.
# (§2) In the tables below, the properties of the compounds according to the invention are compared to those of the structurally most similar compounds known from WO 2012/028579 A1. These tests were carried out by the pre- and post-emergence method under the conditions mentioned under item 1 and item 2. Here, the herbicidal activity against various harmful plants and the damage of some important crop plants were compared at different dosages.
# [2] = test system: Brassica napus (Oilseed Rape); test: Pre-emergence, damage of crop plants
# From the text: as §1, §2
# [3] = test system: Triticum aestivum (Wheat); test: Pre-emergence, damage of crop plants
# From the text: as §1, §2
# Oryza sativa (Rice) [4] = test: Post-emergence, damage of crop plants
# Method: (§3) Seeds of monocotyledonous and dicotyledonous weed plants and crop plants are laid out in wood fiber pots in sandy loam, covered with soil and cultivated in a greenhouse under good growth conditions. 2 to 3 weeks after sowing, the test plants are treated at the one-leaf stage. The compounds according to the invention, formulated in the form of wettable powders (WP) or as emulsion concentrates (EC), are then sprayed onto the green parts of the plants in the form of an aqueous suspension or emulsion at a water application rate equating to 600 to 800 l/ha, with addition of 0.2% wetting agent. After the test plants have been left to stand in the greenhouse under optimal growth conditions for about 3 weeks, the action of the preparations is assessed visually in comparison to untreated controls (herbicidal action in percent (%): 100% activity=the plants have died, 0% activity=like control plants). Here, for example, compounds No. 1-163, 1-171, 1-172, 1-173, 1-254, 1-283, 1-284, 1-293, 1-294 and 1-334, at an application rate of 80 g/ha, have an activity of at least 80% against Abutilon theophrasti and Amaranthus retroflexus.
# as §2
# [5] = test system: Brassica napus (Oilseed Rape); test: Post-emergence, damage of crop plants
# Method: as §3, §2
# [6] = test system: Triticum aestivum (Wheat); test: Post-emergence, damage of crop plants
# Method: as §3, §2
# Avena fatua = test: Pre-emergence herbicidal action
# From the text: as §1, §2
# Lolium multiflorum = test: Post-emergence herbicidal action; conditions: Dosage 20/ha (Table R)
# Method: as §3, §2
# Setaria viridis = test: Post-emergence herbicidal action; conditions: Dosage 20/ha (Table R)
# Method: as §3, §2
# Zea mays (Corn) = test: Post-emergence, damage of crop plants; conditions: Dosage 80 g/ha (Table U)
# Method: as §3, §2
smiles,measurement,setting,value
CSc1c(C(F)(F)F)ccc(C(=O)Nc2ncco2)c1C [1-171],damage of crop plants ORYZA,Oryza sativa (Rice) [1]; Dosage 80/ha (Table A),0%
same,damage of crop plants ORYZA,Oryza sativa (Rice) [1]; Dosage 80/ha (Table B),0%
same,damage of crop plants BRSNW,[2]; Dosage 80/ha (Table A),30%
same,damage of crop plants BRSNW,[2]; Dosage 80/ha (Table B),30%
same,damage of crop plants TRZAS,[3]; Dosage 80/ha (Table A),0%
same,damage of crop plants TRZAS,[3]; Dosage 80/ha (Table B),0%
same,damage of crop plants ORYZA,Oryza sativa (Rice) [4]; Dosage 80/ha (Table M),0%
same,damage of crop plants ORYZA,Oryza sativa (Rice) [4]; Dosage 80/ha (Table N),0%
same,damage of crop plants BRSNW,[5]; Dosage 80/ha (Table M),0%
same,damage of crop plants BRSNW,[5]; Dosage 80/ha (Table N),0%
same,damage of crop plants TRZAS,[6]; Dosage 80/ha (Table M),0%
same,damage of crop plants TRZAS,[6]; Dosage 80/ha (Table N),0%
CCS(=O)(=O)c1ccc(C(=O)Nc2nc(C)c(C)o2)c(Cl)c1C1=NOC(CC#N)C1 (stereo not drawn) [11-343],Damage of BRSNW,[5]; 5 g/ha (Table W),0%
same,Damage of BRSNW,[5]; 20 g/ha (Table V),0%
same,Damage of BRSNW,[5]; 20 g/ha (Table W),0%
same,Damage of BRSNW,[5]; 20 g/ha (Table X),0%
same,Damage of BRSNW,[5]; 80 g/ha (Table V),0%
same,Damage of BRSNW,[5]; 80 g/ha (Table X),0%
same,Herbicidal activity against AVEFA,Avena fatua; 20 g/ha (Table K),80%
same,Herbicidal activity against AVEFA,Avena fatua; 20 g/ha (Table L),80%
same,Herbicidal activity against AVEFA,Avena fatua; 80 g/ha (Table J),80%
same,Herbicidal activity against AVEFA,Avena fatua; 80 g/ha (Table K),80%
same,Herbicidal activity against AVEFA,Avena fatua; 80 g/ha (Table L),80%
same,Herbicidal activity against AVEFA,Avena fatua; 320 g/ha (Table J),100%
"CCS(=O)(=O)c1ccc(C(=O)Nc2ncnn2C)c(Cl)c1C1=NOC(CC#N)C1 (stereo not drawn) [WO 2012/028579, No. 1-267]",Damage of BRSNW,[5]; 20 g/ha (Table V),90%
same,Damage of BRSNW,[5]; 80 g/ha (Table V),90%
same,Herbicidal activity against AVEFA,Avena fatua; 80 g/ha (Table J),0%
same,Herbicidal activity against AVEFA,Avena fatua; 320 g/ha (Table J),0%
"CSc1c(C(F)(F)F)ccc(C(=O)Nc2nnnn2C)c1C [WO 2012/028579, No. 4-135]",damage of crop plants ORYZA,Oryza sativa (Rice) [1]; Dosage 80/ha (Table A),60%
same,damage of crop plants BRSNW,[2]; Dosage 80/ha (Table A),80%
same,damage of crop plants TRZAS,[3]; Dosage 80/ha (Table A),60%
same,damage of crop plants ORYZA,Oryza sativa (Rice) [4]; Dosage 80/ha (Table M),100%
same,damage of crop plants BRSNW,[5]; Dosage 80/ha (Table M),100%
same,damage of crop plants TRZAS,[6]; Dosage 80/ha (Table M),100%
"CCS(=O)(=O)c1ccc(C(=O)Nc2nnnn2C)c(Cl)c1C1=NOC(CC#N)C1 (stereo not drawn) [WO 2012/028579, No. 4-268]",Damage of BRSNW,[5]; 5 g/ha (Table W),80%
same,Damage of BRSNW,[5]; 20 g/ha (Table W),100%
same,Herbicidal activity against AVEFA,Avena fatua; 20 g/ha (Table K),0%
same,Herbicidal activity against AVEFA,Avena fatua; 80 g/ha (Table K),0%
"CCn1nnnc1NC(=O)c1ccc(C(F)(F)F)c(SC)c1C [WO 2012/028579, No. 5-146]",damage of crop plants ORYZA,Oryza sativa (Rice) [1]; Dosage 80/ha (Table B),90%
same,damage of crop plants BRSNW,[2]; Dosage 80/ha (Table B),90%
same,damage of crop plants TRZAS,[3]; Dosage 80/ha (Table B),30%
same,damage of crop plants ORYZA,Oryza sativa (Rice) [4]; Dosage 80/ha (Table N),80%
same,damage of crop plants BRSNW,[5]; Dosage 80/ha (Table N),100%
same,damage of crop plants TRZAS,[6]; Dosage 80/ha (Table N),60%
"CCn1nnnc1NC(=O)c1ccc(S(C)(=O)=O)c([S+](C)[O-])c1Cl (stereo not drawn) [WO 2012/028579, No. 5-294]",herbicidal activity against harmful plants LOLMU,Lolium multiflorum,10%
same,herbicidal activity against harmful plants SETVI,Setaria viridis,0%
"CCS(=O)(=O)c1ccc(C(=O)Nc2nnnn2-c2ccccc2)c(Cl)c1C1=NOC(CC#N)C1 (stereo not drawn) [WO 2012/028579, No. 6-268]",Damage of BRSNW,[5]; 20 g/ha (Table X),20%
same,Damage of BRSNW,[5]; 80 g/ha (Table X),60%
same,Herbicidal activity against AVEFA,Avena fatua; 20 g/ha (Table L),0%
same,Herbicidal activity against AVEFA,Avena fatua; 80 g/ha (Table L),0%
"Cn1nnnc1NC(=O)c1ccc(C(F)(F)F)nc1Cl [WO 2012/028579, No. 8-10]",Damage of ORYZA,Oryza sativa (Rice) [1]; 20 g/ha (Table I),50%
same,Damage of ORYZA,Oryza sativa (Rice) [1]; 80 g/ha (Table I),90%
same,damage of crop plants ZEAMX,Zea mays (Corn),90%
same,damage of crop plants ORYZA,Oryza sativa (Rice) [4]; Dosage 80 g/ha (Table U),90%
